Data as given in ChEMBL document CHEMBL4270491, “Novel 2,4- thiazolidinediones: Synthesis, in vitro cytotoxic activity, and mechanistic investigation” (Eur J Med Chem, 2017).
The source made the active and inactive calls. The calls are words filed in the database; no cut-off is given here.

Test system: PC-3
Test: Cytotoxic activity in human PC3 cells assessed as reduction in cell viability incubated for 3 days by MTT assay
Assay type: functional, cell-based
Conditions: PC-3, 72 h

SMILES | IC50 [µM]
COc1cc(/C=C2/SC(=O)NC2=O)ccc1OCc1nc2ccccc2c(=O)n1-c1cccc(Br)c1 | 66.8
O=C1NC(=O)/C(=C\c2ccc(OCc3nc4ccccc4c(=O)n3-c3cccc(Br)c3)cc2)S1 | 52.9
O=C1NC(=O)/C(=C\c2ccc(OCc3nc4ccccc4c(=O)n3-c3cccc(Cl)c3)cc2)S1 | 70.2
COc1cccc(-n2c(COc3ccc(/C=C4/SC(=O)NC4=O)cc3OC)nc3ccccc3c2=O)c1 | 64.1
COc1cc(-n2c(CN3C(=O)S/C(=C/c4ccc(N(C)C)cc4)C3=O)nc3ccccc3c2=O)cc(OC)c1OC | > 100
CCc1ccc(CCOc2ccc(CC3SC(=O)NC3=O)cc2)nc1 (stereo not drawn) [PIOGLITAZONE] | > 100
O=C1NC(=O)/C(=C\c2ccc(OCc3nc4ccccc4c(=O)n3-c3ccc(F)cc3)cc2)S1 | 52.1
O=C1S/C(=C/c2ccc(Cl)cc2Cl)C(=O)N1Cc1nc2ccccc2c(=O)n1-c1ccccc1 | 58.1
O=C1NC(=O)/C(=C\c2ccc(OCc3nc4ccccc4c(=O)n3-c3ccc(Cl)cc3)cc2)S1 | 8.7
Cc1cccc(-n2c(COc3ccc(/C=C4/SC(=O)NC4=O)cc3)nc3ccccc3c2=O)c1 | > 100
COc1cccc2c1C(=O)c1c(O)c3c(c(O)c1C2=O)C[C@@](O)(C(=O)CO)C[C@@H]3O[C@H]1C[C@H](N)[C@H](O)[C@H](C)O1 [DOXORUBICIN] | 0.3
COc1cc(/C=C2/SC(=O)NC2=O)ccc1OCc1nc2ccccc2c(=O)n1-c1ccc(Br)cc1 | 51.1
COc1cc(/C=C2/SC(=O)NC2=O)ccc1OCc1nc2ccccc2c(=O)n1-c1cccc(Cl)c1 | 62.1

Test system: HT-1080
Test: Induction of apoptosis in human HT1080 cells assessed as induction of caspase-3 cleavage at 50 uM incubated for 24 hrs by Western blot analysis
Assay type: functional, cell-based
Conditions: not given

SMILES | Activity
COc1cc(-n2c(CN3C(=O)S/C(=C/c4ccc(N(C)C)cc4)C3=O)nc3ccccc3c2=O)cc(OC)c1OC | Active
O=C1NC(=O)/C(=C\c2ccc(OCc3nc4ccccc4c(=O)n3-c3ccc(Cl)cc3)cc2)S1 | Active
COc1cc(/C=C2/SC(=O)NC2=O)ccc1OCc1nc2ccccc2c(=O)n1-c1ccc(Br)cc1 | Active

Test system: HT-1080
Test: Induction of cell cycle arrest in human HT1080 cells assessed as accumulation at G0/G1 phase at 20 uM incubated for 48 hrs by propidium iodide staining based flow cytometry
Assay type: functional
Conditions: not given

SMILES | Activity
O=C1S/C(=C/c2ccc(Cl)cc2Cl)C(=O)N1Cc1nc2ccccc2c(=O)n1-c1ccccc1 | Active
O=C1NC(=O)/C(=C\c2ccc(OCc3nc4ccccc4c(=O)n3-c3ccc(Cl)cc3)cc2)S1 | Active

Test system: HT-1080
Test: Induction of cell cycle arrest in human HT1080 cells assessed as accumulation at G2/M phase at 50 uM incubated for 48 hrs by propidium iodide staining based flow cytometry
Assay type: functional
Conditions: not given

SMILES | Activity
COc1cc(/C=C2/SC(=O)NC2=O)ccc1OCc1nc2ccccc2c(=O)n1-c1cccc(Br)c1 | Active
O=C1NC(=O)/C(=C\c2ccc(OCc3nc4ccccc4c(=O)n3-c3cccc(Br)c3)cc2)S1 | Active
O=C1NC(=O)/C(=C\c2ccc(OCc3nc4ccccc4c(=O)n3-c3cccc(Cl)c3)cc2)S1 | Active
COc1cccc(-n2c(COc3ccc(/C=C4/SC(=O)NC4=O)cc3OC)nc3ccccc3c2=O)c1 | Active
COc1cc(-n2c(CN3C(=O)S/C(=C/c4ccc(N(C)C)cc4)C3=O)nc3ccccc3c2=O)cc(OC)c1OC | Active
O=C1NC(=O)/C(=C\c2ccc(OCc3nc4ccccc4c(=O)n3-c3ccc(F)cc3)cc2)S1 | Active
COc1cc(/C=C2/SC(=O)NC2=O)ccc1OCc1nc2ccccc2c(=O)n1-c1ccc(Br)cc1 | Active

Test system: HT-1080
Test: Induction of cell cycle arrest in human HT1080 cells assessed as accumulation at G2/M phase at 20 uM incubated for 48 hrs by propidium iodide staining based flow cytometry
Assay type: functional
Conditions: not given

SMILES | Activity
O=C1S/C(=C/c2ccc(Cl)cc2Cl)C(=O)N1Cc1nc2ccccc2c(=O)n1-c1ccccc1 | Active
O=C1NC(=O)/C(=C\c2ccc(OCc3nc4ccccc4c(=O)n3-c3ccc(Cl)cc3)cc2)S1 | Active

Test system: MDA-MB-231
Test: Increase in p21(WAF1) protein expression in human MDA-MB-231 cells at 50 uM incubated for 24 hrs by Western blot analysis
Assay type: functional, cell-based
Conditions: not given

SMILES | Activity
CCc1ccc(CCOc2ccc(CC3SC(=O)NC3=O)cc2)nc1 (stereo not drawn) [PIOGLITAZONE] | Active
O=C1NC(=O)/C(=C\c2ccc(OCc3nc4ccccc4c(=O)n3-c3ccc(Cl)cc3)cc2)S1 | Active

Test system: HT-1080
Test: Induction of apoptosis in human HT1080 cells assessed as induction of DNA fragmentation at 50 uM incubated for 48 hrs by flow cytometry
Assay type: functional, cell-based
Conditions: not given

SMILES | Activity
COc1cc(/C=C2/SC(=O)NC2=O)ccc1OCc1nc2ccccc2c(=O)n1-c1cccc(Br)c1 | Active
O=C1NC(=O)/C(=C\c2ccc(OCc3nc4ccccc4c(=O)n3-c3cccc(Br)c3)cc2)S1 | Active
O=C1NC(=O)/C(=C\c2ccc(OCc3nc4ccccc4c(=O)n3-c3cccc(Cl)c3)cc2)S1 | Active
COc1cccc(-n2c(COc3ccc(/C=C4/SC(=O)NC4=O)cc3OC)nc3ccccc3c2=O)c1 | Active
COc1cc(-n2c(CN3C(=O)S/C(=C/c4ccc(N(C)C)cc4)C3=O)nc3ccccc3c2=O)cc(OC)c1OC | inactive
CCc1ccc(CCOc2ccc(CC3SC(=O)NC3=O)cc2)nc1 (stereo not drawn) [PIOGLITAZONE] | inactive
O=C1NC(=O)/C(=C\c2ccc(OCc3nc4ccccc4c(=O)n3-c3ccc(F)cc3)cc2)S1 | Active
O=C1S/C(=C/c2ccc(Cl)cc2Cl)C(=O)N1Cc1nc2ccccc2c(=O)n1-c1ccccc1 | inactive
O=C1NC(=O)/C(=C\c2ccc(OCc3nc4ccccc4c(=O)n3-c3ccc(Cl)cc3)cc2)S1 | Active
COc1cc(/C=C2/SC(=O)NC2=O)ccc1OCc1nc2ccccc2c(=O)n1-c1ccc(Br)cc1 | Active

Test system: PC-3
Test: Increase in p21(WAF1) protein expression in human PC3 cells at 50 uM incubated for 24 hrs by Western blot analysis
Assay type: functional, cell-based
Conditions: not given

SMILES | Activity
CCc1ccc(CCOc2ccc(CC3SC(=O)NC3=O)cc2)nc1 (stereo not drawn) [PIOGLITAZONE] | Active
O=C1NC(=O)/C(=C\c2ccc(OCc3nc4ccccc4c(=O)n3-c3ccc(Cl)cc3)cc2)S1 | Active

Test system: MDA-MB-231
Test: Cytotoxic activity in human MDA-MB-231 cells assessed as reduction in cell viability incubated for 3 days by MTT assay
Assay type: functional, cell-based
Conditions: MDA-MB-231, 72 h

SMILES | IC50 [µM]
COc1cc(/C=C2/SC(=O)NC2=O)ccc1OCc1nc2ccccc2c(=O)n1-c1cccc(Br)c1 | 62.1
O=C1NC(=O)/C(=C\c2ccc(OCc3nc4ccccc4c(=O)n3-c3cccc(Br)c3)cc2)S1 | 49.8
O=C1NC(=O)/C(=C\c2ccc(OCc3nc4ccccc4c(=O)n3-c3cccc(Cl)c3)cc2)S1 | 58.5
COc1cccc(-n2c(COc3ccc(/C=C4/SC(=O)NC4=O)cc3OC)nc3ccccc3c2=O)c1 | 87.2
COc1cc(-n2c(CN3C(=O)S/C(=C/c4ccc(N(C)C)cc4)C3=O)nc3ccccc3c2=O)cc(OC)c1OC | > 100
CCc1ccc(CCOc2ccc(CC3SC(=O)NC3=O)cc2)nc1 (stereo not drawn) [PIOGLITAZONE] | > 100
O=C1NC(=O)/C(=C\c2ccc(OCc3nc4ccccc4c(=O)n3-c3ccc(F)cc3)cc2)S1 | 46.2
O=C1S/C(=C/c2ccc(Cl)cc2Cl)C(=O)N1Cc1nc2ccccc2c(=O)n1-c1ccccc1 | 6.4
O=C1NC(=O)/C(=C\c2ccc(OCc3nc4ccccc4c(=O)n3-c3ccc(Cl)cc3)cc2)S1 | 4.5
Cc1cccc(-n2c(COc3ccc(/C=C4/SC(=O)NC4=O)cc3)nc3ccccc3c2=O)c1 | > 100
COc1cccc2c1C(=O)c1c(O)c3c(c(O)c1C2=O)C[C@@](O)(C(=O)CO)C[C@@H]3O[C@H]1C[C@H](N)[C@H](O)[C@H](C)O1 [DOXORUBICIN] | 0.36
COc1cc(/C=C2/SC(=O)NC2=O)ccc1OCc1nc2ccccc2c(=O)n1-c1ccc(Br)cc1 | 51.3
COc1cc(/C=C2/SC(=O)NC2=O)ccc1OCc1nc2ccccc2c(=O)n1-c1cccc(Cl)c1 | 72.5

Biological target: T1, Mitogen-activated protein kinase; ERK1/ERK2 (Homo sapiens) (UniProt P27361+P28482)
T1 sequence (P27361 whole entry, looked up): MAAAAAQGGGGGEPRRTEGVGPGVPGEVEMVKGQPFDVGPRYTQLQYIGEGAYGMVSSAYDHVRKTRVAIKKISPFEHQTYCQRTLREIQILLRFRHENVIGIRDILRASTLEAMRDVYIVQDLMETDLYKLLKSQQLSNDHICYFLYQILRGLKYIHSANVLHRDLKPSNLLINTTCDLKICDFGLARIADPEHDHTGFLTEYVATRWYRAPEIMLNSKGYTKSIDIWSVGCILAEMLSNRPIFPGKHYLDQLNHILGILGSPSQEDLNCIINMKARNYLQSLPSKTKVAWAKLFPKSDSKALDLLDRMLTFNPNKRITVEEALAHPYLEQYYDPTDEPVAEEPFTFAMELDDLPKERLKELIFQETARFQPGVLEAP
T1 sequence (P28482 whole entry, looked up): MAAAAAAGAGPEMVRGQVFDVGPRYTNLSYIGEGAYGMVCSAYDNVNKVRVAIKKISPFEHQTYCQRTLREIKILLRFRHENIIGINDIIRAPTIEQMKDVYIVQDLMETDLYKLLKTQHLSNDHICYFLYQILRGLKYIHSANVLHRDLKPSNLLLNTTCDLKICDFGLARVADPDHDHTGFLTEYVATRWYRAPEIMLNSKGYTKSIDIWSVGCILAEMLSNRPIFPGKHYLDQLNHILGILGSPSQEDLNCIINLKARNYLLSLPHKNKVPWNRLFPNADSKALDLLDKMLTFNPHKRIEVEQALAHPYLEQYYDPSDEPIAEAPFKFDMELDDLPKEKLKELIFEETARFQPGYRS
Test: Induction of ERK1/2 Thr202/Tyr204 phosphorylation in human PC3 cells at 50 uM incubated for 24 hrs by Western blot analysis
Assay type: cell-based
Conditions: not given

SMILES | Activity
O=C1NC(=O)/C(=C\c2ccc(OCc3nc4ccccc4c(=O)n3-c3ccc(Cl)cc3)cc2)S1 | Active

Biological target: T1, Mitogen-activated protein kinase; ERK1/ERK2 (Homo sapiens)
Test: Inhibition of ERK1/2 Thr202/Tyr204 phosphorylation in human MDA-MB-231 cells at 50 uM incubated for 24 hrs by Western blot analysis
Assay type: cell-based
Conditions: not given

SMILES | inhibition
O=C1NC(=O)/C(=C\c2ccc(OCc3nc4ccccc4c(=O)n3-c3ccc(Cl)cc3)cc2)S1 | Active

Test system: HT-1080
Test: Increase in p21(WAF1) protein expression in human HT1080 cells at 50 uM incubated for 24 hrs by Western blot analysis
Assay type: functional, cell-based
Conditions: not given

SMILES | Activity
CCc1ccc(CCOc2ccc(CC3SC(=O)NC3=O)cc2)nc1 (stereo not drawn) [PIOGLITAZONE] | inactive
O=C1NC(=O)/C(=C\c2ccc(OCc3nc4ccccc4c(=O)n3-c3ccc(Cl)cc3)cc2)S1 | inactive

Test system: HT-1080
Test: Cytotoxic activity in human HT1080 cells assessed as reduction in cell viability incubated for 3 days by MTT assay
Assay type: functional, cell-based
Conditions: HT-1080, 72 h

SMILES | IC50 [µM]
COc1cc(/C=C2/SC(=O)NC2=O)ccc1OCc1nc2ccccc2c(=O)n1-c1cccc(Br)c1 | 41.9
O=C1NC(=O)/C(=C\c2ccc(OCc3nc4ccccc4c(=O)n3-c3cccc(Br)c3)cc2)S1 | 28.4
O=C1NC(=O)/C(=C\c2ccc(OCc3nc4ccccc4c(=O)n3-c3cccc(Cl)c3)cc2)S1 | 44.8
COc1cccc(-n2c(COc3ccc(/C=C4/SC(=O)NC4=O)cc3OC)nc3ccccc3c2=O)c1 | 47.9
COc1cc(-n2c(CN3C(=O)S/C(=C/c4ccc(N(C)C)cc4)C3=O)nc3ccccc3c2=O)cc(OC)c1OC | 98.1
CCc1ccc(CCOc2ccc(CC3SC(=O)NC3=O)cc2)nc1 (stereo not drawn) [PIOGLITAZONE] | > 100
O=C1NC(=O)/C(=C\c2ccc(OCc3nc4ccccc4c(=O)n3-c3ccc(F)cc3)cc2)S1 | 45.3
O=C1S/C(=C/c2ccc(Cl)cc2Cl)C(=O)N1Cc1nc2ccccc2c(=O)n1-c1ccccc1 | 12.2
O=C1NC(=O)/C(=C\c2ccc(OCc3nc4ccccc4c(=O)n3-c3ccc(Cl)cc3)cc2)S1 | 3.9
Cc1cccc(-n2c(COc3ccc(/C=C4/SC(=O)NC4=O)cc3)nc3ccccc3c2=O)c1 | 54
COc1cccc2c1C(=O)c1c(O)c3c(c(O)c1C2=O)C[C@@](O)(C(=O)CO)C[C@@H]3O[C@H]1C[C@H](N)[C@H](O)[C@H](C)O1 [DOXORUBICIN] | 0.017
COc1cc(/C=C2/SC(=O)NC2=O)ccc1OCc1nc2ccccc2c(=O)n1-c1ccc(Br)cc1 | 18.9
COc1cc(/C=C2/SC(=O)NC2=O)ccc1OCc1nc2ccccc2c(=O)n1-c1cccc(Cl)c1 | 67.6

Test system: HT-1080
Test: Induction of cell cycle arrest in human HT1080 cells assessed as accumulation at G0/G1 phase at 50 uM incubated for 48 hrs by propidium iodide staining based flow cytometry
Assay type: functional
Conditions: not given

SMILES | Activity
COc1cc(/C=C2/SC(=O)NC2=O)ccc1OCc1nc2ccccc2c(=O)n1-c1cccc(Br)c1 | Active
O=C1NC(=O)/C(=C\c2ccc(OCc3nc4ccccc4c(=O)n3-c3cccc(Br)c3)cc2)S1 | Active
O=C1NC(=O)/C(=C\c2ccc(OCc3nc4ccccc4c(=O)n3-c3cccc(Cl)c3)cc2)S1 | Active
COc1cccc(-n2c(COc3ccc(/C=C4/SC(=O)NC4=O)cc3OC)nc3ccccc3c2=O)c1 | Active
COc1cc(-n2c(CN3C(=O)S/C(=C/c4ccc(N(C)C)cc4)C3=O)nc3ccccc3c2=O)cc(OC)c1OC | Active
O=C1NC(=O)/C(=C\c2ccc(OCc3nc4ccccc4c(=O)n3-c3ccc(F)cc3)cc2)S1 | Active
COc1cc(/C=C2/SC(=O)NC2=O)ccc1OCc1nc2ccccc2c(=O)n1-c1ccc(Br)cc1 | Active
